In patent US11365207B2, “Sulfur-containing polycyclic-hydroxypyridone carboxamide analog against HIV” (priority 2018, dated 2022):
Where a name gives a salt, the structure may show the parent alone. Read-outs that look alike come from different tables or passages of the source.

Legend:
Format in all cases: cell-based
[1] = Toxicity test of C8166 cells (MTT colorimetric method); details: human
Experimental: (§1) Human T lymphocytic series C8166 and HIV-1 experiment strain HIV-1IIIB are both from National Institutes of Health (NIH); cells are cultured in the RPMI-1640 complete culture medium containing 10% fetal bovine serum. HIV-1IIIB is prepared by using a conventional method, titration and calculation of TCID 50 of viruses are performed. Virus stock solution is subpackaged and stored at −70° C. Cells and viruses are cryopreserved and recovered according to conventional methods.
6. Toxicity Test of C8166 Cells
100 μl of 4×10^5 ml C8166 was mixed with different to-be-detected drug solutions, and 3 repetition wells were set. Meanwhile, control wells were set. Culture was performed for 3 days under the conditions of 37° C. and 5% CO2. Cytotoxicity was detected with MTT colorimetric method. The OD value was measured with EL ×800 ELIASA, the wavelength was measured as 570/630 nm. The CC50 value was calculated (50% cytotoxic concentration), namely, the concentration of the drug when toxicity was generated for 50% normal T lymphocytic series C8166.
(§2) According to experiment results, fitted curves are drawn using Origin2016, the 50% effective concentrations (EC50) of the samples inhibiting viruses, 50% cell growth inhibition concentrations (CC50) and TI (therapeutic index) value against HIV-1 activity are calculated based on Reed & Muench method, and the TI value is TI=CC50/EC50.
1. Cell growth survival rate (%)=experiment well OD value/control well OD value×100

HIV-1IIIB [2] = test: Inhibition of replication in HIV-1IIIB acute infectious C8166 cells (p24 antigen capture ELISA); details: for EC50: Human immunodeficiency virus 1, 72 h, P24 antigen, HIV-1IIIB acute infectious C8166 cells, 3 days; for inhibitory effect on HIV-1 replication in vitro: statement in words
Experimental: as §1
5. Measurement of HIV-1 p24 Antigen with p24 Antigen Capture ELISA Method
The 1 μg/plate of anti-mouse IgG Fc antibody was paved at 4° C. for overnight; the plate was sealed with 5% skimmed milk powder 4° C. for overnight; 100 μl/well mouse anti-p24 monoclonal antibody was added at 37° C. for 1 h; 100 μl/well (1:100) diluted rabbit anti-p24 polyclonal antibody (homemade) was added for 1 h at 37° C.; 100 μl/well (1:20000) diluted goat anti-rabbit IgG HRP was added for 1 h at 37° C.; OPD substrate reaction solution was added. After 10 min, 2M sulfuric acid was added to stop the reaction. The OD value was determined by Elx800 ELISA, and the wavelength was measured as 490/630 nm. The inhibition rate and EC50 of the drug on the p24 antigen replication and expression of HIV-1, namely, the concentration of the drug inhibiting 50% HIV-1 p24 antigen were calculated, namely, the concentration of the drug inhibiting 50% HIV-1 p24 antigen expression was calculated.
8. Inhibition Effect of Samples on Replication in Experiment Strain HIV-1IIIB Acute Infectious C8166 Cells
4×10^5 cells/ml C8166 cells and HIV-1IIIB MOI (multiplicity of infection=0.04) are infected for 2 h at 37° C., the obtained mixture is washed three times with PBS to remove free virus ions, 100 μl of cells are inoculated onto the 96-well plate containing 100 μl of to-be-detected compounds having different dilutions and cultured for 3 days under the conditions of 37° C. and 5% CO2. The cultural supernatant is centrifuged and then collected, and finally lysed and inactivated with 0.5% Triton X-100. The inhibition effect of the drug on HIV-1 replication is detected by using the p24 antigen capture ELISA method.
as §2
3. HIV-1 p24 antigen expression inhibition rate (%)=(1−experiment well OD value/control well OD value)×100

HIV-1IIIB [3] = test: Inhibition experiment for cytopathic effect (CPE) of HIV-1IIIB, syncytia formation in C8166 cells; details: Human immunodeficiency virus 1, 72 h, HIV-1IIIB in C8166 cells, 3 days
Experimental: as §1
7. Inhibition Experiment for Cytopathic Effect (CPE) of HIV-1IIIB
8×10^5/ml C8166 cells were inoculated onto the 96-well cell culture plate containing 100 μl/well drug subjected to gradient multiple proportion dilution in an amount of 50 μl/well, and then 50 μl HIV-1IIIB was added to dilute the supernatant, 1300 TCID 50/well. 3 repetition wells were set. Meanwhile, normal cell control wells without drugs were set. TDF and dolutegravir were positive drug controls. Culture was performed for 3 days under the conditions of 37° C. and 5% CO2, and syncytia formation were counted under the inverted microscope (100×). EC50 (50% Effective Concentration) is the concentration of the drug when 50% of syncytia formation is inhibited.
as §2
2. HIV-1 cytopathic cell inhibition rate (%)=(1−experiment well syncytia number/control well syncytia number)×100

[4] = C8166 cells (T lymphocytic cell line), C8166 cells, MTT, 3 days, read-out: CC50

EC50 (HIV-1IIIB [2]; values given in pM)	EC50 (HIV-1IIIB [3]; values given in pM)	SMILES	CC50 at 3 days [1, 4]	further results
201 ± 33.3 pM	187 ± 31.1 pM	C[C@@H]1CSC2Cn3cc(C(=O)NCc4ccc(F)cc4F)c(=O)c(O)c3C(=O)N21 (stereo partly shown) [Compound 1]	20300 ± 210 nM	–
18.1 ± 2.86 pM	15.7 ± 2.61 pM	C[C@H]1CSC2Cn3cc(C(=O)NCc4ccc(F)cc4F)c(=O)c(O)c3C(=O)N21 (stereo partly shown) [Compound 2]	11330 ± 110 nM	inhibitory effect on HIV-1 replication in vitro (HIV-1IIIB [2]): extremely strong inhibition effects; inhibitory effect on HIV-1 replication in vitro (HIV-1IIIB [2]; listed as compound 2): strong inhibitory effect
35.1 ± 6.02 pM	28.9 ± 5.11 pM	CC[C@@H]1CSC2Cn3cc(C(=O)NCc4ccc(F)cc4F)c(=O)c(O)c3C(=O)N21 (stereo partly shown) [Compound 3]	18600 ± 350 nM	–
35.1 ± 6.02 pM	28.9 ± 5.11 pM	CC[C@H]1CSC2Cn3cc(C(=O)NCc4ccc(F)cc4F)c(=O)c(O)c3C(=O)N21 (stereo partly shown) [Compound 4]	18600 ± 350 nM	–
188 ± 22.8 pM	162 ± 18.1 pM	CC(C)C1CSC2Cn3cc(C(=O)NCc4ccc(F)cc4F)c(=O)c(O)c3C(=O)N21 (stereo not shown) [Compound 5]	16100 ± 300 nM	–
208 ± 36.1 pM	182 ± 20.3 pM	CC(C)[C@H]1CSC2Cn3cc(C(=O)NCc4ccc(F)cc4F)c(=O)c(O)c3C(=O)N21 (stereo partly shown) [Compound 6]	22600 ± 480 nM	–
781 ± 113 pM	716 ± 103 pM	CC(C)(C)[C@H]1CSC2Cn3cc(C(=O)NCc4ccc(F)cc4F)c(=O)c(O)c3C(=O)N21 (stereo partly shown) [Compound 8]	26300 ± 350 nM	–
–	–	O=C(NCc1ccc(F)cc1F)c1cn2c(c(O)c1=O)C(=O)N1C(C2)SC[C@@H]1c1ccccc1 (stereo partly shown) [Compound 10]	45160 ± 410 nM	EC50 (HIV-1IIIB [2]; values in nM): 4160 ± 580 pM; EC50 (HIV-1IIIB [3]; values in nM): 3820 ± 510 pM
589 ± 86.1 pM	526 ± 77.1 pM	O=C(NCc1ccc(F)cc1F)c1cn2c(c(O)c1=O)C(=O)N1C(C2)SC[C@@H]1Cc1ccccc1 (stereo partly shown) [Compound 12]	28600 ± 320 nM	–
11.1 ± 2.09 pM	10.2 ± 2.11 pM	C[C@@H]1CCSC2Cn3cc(C(=O)NCc4ccc(F)cc4F)c(=O)c(O)c3C(=O)N21 (stereo partly shown) [Compound 18]	14000 ± 210 nM	inhibitory effect on HIV-1 replication in vitro (HIV-1IIIB [2]): extremely strong inhibition effects; inhibitory effect on HIV-1 replication in vitro (HIV-1IIIB [2]; listed as compound 18): strong inhibitory effect
148 ± 20.1 pM	125 ± 17 pM	CC(C)C[C@H]1CSC2Cn3cc(C(=O)NCc4ccc(F)cc4F)c(=O)c(O)c3C(=O)N21 (stereo partly shown) [Compound 20]	18300 ± 190 nM	–
83.6 ± 10.9 pM	75.3 ± 8.61 pM	C[C@H]1CSC2Cn3cc(C(=O)NCc4ccc(F)cc4)c(=O)c(O)c3C(=O)N21 (stereo partly shown) [Compound 66]	20100 ± 210 nM	inhibitory effect on HIV-1 replication in vitro (HIV-1IIIB [2]): strong inhibitory effect
–	–	C[C@@H]1CCO[C@H]2Cn3cc(C(=O)NCc4ccc(F)cc4F)c(=O)c(O)c3C(=O)N12 [Dolutegravir, reference compound]	26600 ± 2200 nM	EC50 (HIV-1IIIB [2]; values in nM): 1050 ± 120 pM; EC50 (HIV-1IIIB [3]; values in nM): 2130 ± 330 pM
–	–	CC(C)OC(=O)OCOP(=O)(CO[C@H](C)Cn1cnc2c(N)ncnc21)OCOC(=O)OC(C)C [TDF, tenofovir disoproxil fumarate, reference compound]	157000 ± 21400 nM	EC50 (HIV-1IIIB [2]; values in nM): 8070 ± 4720 pM; EC50 (HIV-1IIIB [3]; values in nM): 12100 ± 11300 pM

SMILES	EC50 (HIV-1IIIB [2]; values given in pM)	EC50 (HIV-1IIIB [3]; values given in pM)	CC50 at 3 days [1, 4]	further results
O=C(NCc1c(F)cc(F)cc1F)c1cn2c(c(O)c1=O)C(=O)N1C(C2)S[C@@H]2CC[C@H]1C2 (stereo partly shown) [Compound 34]	38.1 ± 6.52 pM	35.9 ± 6.11 pM	–	CC50 at 3 days [1]: 20700 ± 320 nM; inhibitory effect on HIV-1 replication in vitro (HIV-1IIIB [2]): extremely strong inhibition effects; inhibitory effect on HIV-1 replication in vitro (HIV-1IIIB [2]; listed as compound 34): strong inhibitory effect
